Measurements published in the supplement of paper PMC10307832.

Columns and labels:
Experiment in all cases: relative viability (nuclei count vs DMSO), 5 days (fraction); higher = more cells survive
OSI-027 = compound: COc1cccc2cc(-c3nc([C@H]4CC[C@H](C(=O)O)CC4)n4ncnc(N)c34)[nH]c12 [OSI-027]
In short: (§1)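 Cells of lung cancer lines were placed in 1536-well plates and kept overnight at 37 °C. Pinning then delivered five library-drug doses (not always all listed), spaced by √10, onto plates anchored with vehicle, and the cells were left 5 days without changing medium. One step fixed, permeabilised and stained them with Hoechst, and MetaXpress counted nuclei in 4× images. Viability, as a median over plates, is treated-well nuclei divided by vehicle-well nuclei, with acceptance only at control CV below 25% and at least one doubling.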

Alpelisib = compound: Cc1nc(NC(=O)N2CCC[C@H]2C(N)=O)sc1-c1ccnc(C(C)(C)C(F)(F)F)c1 [Alpelisib]
In short: as §1

Vemurafenib = compound: CCCS(=O)(=O)Nc1ccc(F)c(C(=O)c2c[nH]c3ncc(-c4ccc(Cl)cc4)cc23)c1F [Vemurafenib]
In short: as §1

Vemurafenib + Phenformin = compound: CCCS(=O)(=O)Nc1ccc(F)c(C(=O)c2c[nH]c3ncc(-c4ccc(Cl)cc4)cc23)c1F [Vemurafenib] + N=C(N)NC(=N)NCCc1ccccc1 [Phenformin] (partner 250 µM)
In short: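 Nuclei were stained with Hoechst during a one-step fixation (final 0.05% Triton X-100, 1% formaldehyde, 1 ug/ml Hoechst) carried out 5 days after dosing, then counted on 4× images. The cells, lung cancer lines in 1536-well plates, had been dosed by pin tool the day after seeding with one drug alone or a fixed anchor-drug dose plus five library-drug doses (not always all listed) in √10 steps. Relative viability is the nuclei count in treated wells divided by that in vehicle wells, and each value is the median of duplicate plates.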

| Cell Line | relative viability (OSI-027; 0.01 µM) | relative viability (OSI-027; 0.03162 µM) | relative viability (OSI-027; 0.1 µM) | relative viability (OSI-027; 0.3162 µM) | relative viability (OSI-027; 0.5 µM, anchor plate) | relative viability (OSI-027; 1 µM) | relative viability (Alpelisib; 0.04 µM) | relative viability (Alpelisib; 0.1265 µM) | relative viability (Alpelisib; 0.4 µM) | relative viability (Alpelisib; 1.265 µM) | relative viability (Alpelisib; 2 µM, anchor plate) | relative viability (Alpelisib; 4 µM) | relative viability (Vemurafenib; 0.03162 µM) | relative viability (Vemurafenib; 0.1 µM) | relative viability (Vemurafenib; 0.3162 µM) | relative viability (Vemurafenib; 1 µM) | relative viability (Vemurafenib + Phenformin; first compound 0.03162 µM) | relative viability (Vemurafenib + Phenformin; first compound 0.1 µM) | relative viability (Vemurafenib + Phenformin; first compound 1 µM) | relative viability (Vemurafenib + Phenformin; first compound 0.3162 µM) |
| --- | --- | --- | --- | --- | --- | --- | --- | --- | --- | --- | --- | --- | --- | --- | --- | --- | --- | --- | --- | --- |
| HCC-44 | 0.975 | 0.963 | 0.928 | 0.871 | 0.634 | 0.739 | 0.98 | 0.914 | 1.02 | 0.846 | 0.811 | 0.861 | 0.899 | 0.955 | 0.758 | 1.07 | 0.157 | 0.206 | 0.213 |  |
| HCC-78 | 0.938 | 0.866 | 0.832 | 0.727 | 0.385 | 0.501 | 0.93 | 0.798 | 0.897 | 0.664 | 0.378 | 0.655 | 0.93 | 0.838 | 1.05 | 0.964 | 0.656 | 0.618 | 0.727 | 0.817 |
| HCC-366 | 1.05 | 0.962 | 1.08 | 1.05 | 0.911 | 0.803 | 0.935 | 1 | 1.09 | 0.947 | 0.443 | 0.627 | 1.01 | 0.969 |  | 1.09 | 0.61 | 0.565 | 0.593 | 0.247 |
| HCC-827 | 1.08 | 1.02 | 1.04 | 1.04 | 0.792 | 0.956 | 1.02 | 0.935 | 1.05 | 0.981 | 0.945 | 1 | 1.05 |  | 0.95 | 1.07 | 0.377 |  | 0.404 | 0.425 |
| HOP-62 | 1 | 1.07 | 1 | 0.957 | 0.831 | 0.75 | 1.04 | 1.06 | 1.1 | 0.863 | 0.974 | 0.955 | 0.961 | 1.05 | 0.858 | 0.875 | 0.628 | 0.651 | 0.595 | 0.585 |
| IA-LM | 0.888 | 0.779 | 0.671 | 0.293 |  | 0.151 | 0.979 | 0.854 | 1.02 | 0.753 | 0.799 | 0.717 | 0.837 | 0.888 | 0.86 | 0.851 |  |  |  |  |
| LC-2-ad | 1.07 | 1.01 | 0.946 | 1.02 | 0.875 | 0.779 | 0.966 | 0.905 | 1.09 | 0.685 | 0.868 | 0.672 | 0.923 | 0.892 | 0.738 | 0.956 | 0.549 | 0.583 | 0.569 |  |
| LCLC-97TM1 | 0.87 | 0.869 | 0.888 | 0.594 | 0.536 | 0.375 | 0.873 | 0.845 | 1.01 | 0.796 | 0.257 | 0.521 | 0.989 | 1.05 | 1.02 | 0.912 | 0.4 | 0.43 | 0.342 | 0.43 |
| LCLC-103H | 1.03 | 1.02 | 0.903 | 0.871 | 0.473 | 0.749 | 0.972 | 0.956 | 0.959 | 0.779 | 0.969 | 0.749 | 0.958 | 0.952 | 0.91 | 0.883 | 0.312 | 0.342 | 0.307 | 0.262 |
| LK-2 | 1.02 | 0.914 | 0.703 | 0.515 | 0.221 | 0.191 | 0.885 | 0.868 | 0.685 | 0.563 | 1.1 | 0.599 | 0.944 | 0.937 | 1.05 | 0.66 | 0.396 | 0.609 | 0.185 | 0.398 |
| LOU-NH91 | 0.903 | 0.967 | 0.786 | 0.776 | 0.72 | 0.591 | 0.961 | 0.806 | 0.859 | 0.753 | 0.732 | 0.604 | 0.954 | 0.724 |  | 1.07 | 0.644 |  | 0.731 |  |
| LU99A | 0.953 | 0.894 | 0.831 | 0.451 | 0.307 | 0.27 | 0.899 | 0.96 | 1.04 | 0.773 | 0.511 | 0.696 | 0.93 | 0.946 | 0.74 | 0.895 | 0.887 | 0.841 | 0.783 | 0.551 |
| LXF-289 | 1.02 | 0.971 | 1.04 | 0.981 | 0.817 | 0.881 | 0.988 | 1.11 | 1.05 | 1 | 1.06 | 0.961 | 0.967 | 0.95 | 1 | 1.06 | 0.456 | 0.457 | 0.551 | 0.435 |
| NCI-H23 | 0.906 | 0.96 | 0.808 | 0.784 | 0.612 | 0.54 | 0.94 | 0.798 | 0.913 | 0.739 | 0.78 | 0.706 | 0.918 | 0.967 | 0.838 | 0.871 | 0.702 | 0.797 | 0.723 | 0.728 |
| NCI-H322M | 0.922 | 0.887 | 0.843 | 0.72 | 0.578 | 0.527 | 0.879 | 0.961 | 0.918 | 0.698 | 0.786 | 0.682 | 0.883 |  | 1.11 | 0.906 | 0.714 |  | 0.724 |  |
| NCI-H1299 | 1 | 0.995 | 1.02 | 1.06 |  | 0.825 | 1.03 | 1.04 | 1.07 | 0.988 | 1.04 | 0.945 | 1.01 | 0.98 | 0.895 | 0.991 |  |  |  |  |
| NCI-H1648 | 0.868 | 0.602 | 0.683 | 0.724 | 0.266 | 0.532 | 0.712 | 0.986 | 0.778 | 0.576 |  | 0.257 | 0.819 | 0.717 | 1.4 | 0.833 |  |  |  |  |
| NCI-H1703 | 0.913 | 0.948 | 0.759 | 0.657 |  | 0.434 | 0.89 | 0.642 | 0.654 | 0.465 | 0.348 | 0.462 | 1.02 | 0.864 | 0.795 | 0.986 |  |  |  |  |
